According to patent US5559028A, “Methods of enhancing or antigen presentation to T cells inhibiting” (Antigen Express, Inc., priority 1993, dated 1996):
Where no end group is shown, it is not given here.

What was measured:
[1] = system: E^k -restricted murine T cell hybridoma, TPc9.1; test: Enhancement of presentation of pigeon cytochrome C(81-104) by fixed CH27 cells to TPc9.1 T hybridoma (IL-2/IL-4, HT-2 indicator); format: cell-based
Method: The assay was carried out as follows. 5×10^4 paraformaldehyde-fixed CH27 B lymphoma cells (antigen presenting cells) were incubated in 96-well plates with 5×10^4 TPc9.1 T hybridoma cells (irradiated 2200 rads) for 24 hrs in the presence of: no peptides, 50 μM Ii peptide only, 6 μM pigeon cytochrome C(81-104) peptide only, and 50 μM Ii peptide plus 6 μM pigeon cytochrome C(81-104) peptide. Each condition was assayed in sextuplet. After incubation, the response of the T cell hybridoma was determined by measuring the IL-2/IL-4 secreted during the 24 hr culture. The supernatants were collected and were tested for IL-2/IL-4 content by the ability to support the growth of the IL-2/ IL-4-dependent cell line HT-2 as measured by [^3 H]thymidine incorporation. The values presented in Table V are the CPM×10^-3 incorporated in the HT-2 indicator assay.
The enhancement of responses to pigeon cytochrome C peptide (81-104) by Ii (148-164) and Ii (78-92) was assayed as a function of concentration of the added Ii peptide (Table VI). The values in the Table represent the % enhancement of the pigeon cytochrome C(81-104) peptide-specific, E^k -restricted response by the TPc9.1 murine T cell hybridoma (T) to the peptide presented by paraformaldehyde-fixed CH27 B lymphoma cells (APC). Culture supernatants were collected and were tested for IL-2/IL-4 content by the ability to support the growth of the Il-2/IL-4-dependent cell Line HT-2 as measured by the incorporation of [^3 H]thymidine. The % enhancement was calculated as: [(CPM of T+APC+peptide+Ii peptide / CPM of T+APC+peptide)×100]-100.

[2] = system: cathepsin D; test: Cathepsin D digestion of wild type and mutant Ii in trimers with HLA-DR1 α,β chains (SDS-PAGE of fragments); format: biochemical; settings: pH 5.0, 30 min, room temperature, Jesthom microsomal membrane proteins
Method: The lowest level of cathepsin D seen to cleave Ii was 0.1 U/ml. Solubilized microsomal membrane proteins from [^35 S]methionine-labeled Jesthom cells were treated with the cathepsin D (concentrations 0, 0.01, 0.05, 0.1, 0.5, 2.5, 10.0 U/ml) at pH 5.0 for 30 min at room temperature. At the end of the incubation, the enzyme was inactivated and immunoprecipitates with anti-class II mAb, IVA12 or with anti-Ii mAb, VIC-Y1 were formed. The immunoprecipitated samples were analyzed by SDS-PAGE and autoradiography. In a second experiment, when the lowest level of cathepsin D (0.1 U/ml) seen to cleave Ii was added to the assay for peptide binding in the presence of varying concentrations of cathepsin B (0.02-0.5 U/ml), the net level of peptide binding was enhanced about 3 times that seen without cathepsin D, as judged by densitometry of the autoradiographs. For this experiment iodinated HSAB-MA(18-29) peptide and unradiolabeled microsomal membranes were incubated with or without 0.1 U/ml cathepsin D for 10 min or 30 min in the presence of varying amounts of cathepsin B (0.02, 0.1, or 0.5 U/ml). After subsequent photoactivation and immunoprecipitation with anti-class II mAb, the samples were subjected to SDS-PAGE and autoradiography.
CD digestions were carried out according to Reyes et al. (1991). […]

[3] = system: Ii; settings: cited from earlier work
[4] = molecular target: cathepsin B (Homo sapiens, UniProt P07858); settings: cited from earlier work
[5] = molecular target: cathepsin D (Homo sapiens, UniProt P07339); settings: cited from earlier work
Sequence of cathepsin D (Homo sapiens, UniProt P07339) (P07339 65-412, species assumed): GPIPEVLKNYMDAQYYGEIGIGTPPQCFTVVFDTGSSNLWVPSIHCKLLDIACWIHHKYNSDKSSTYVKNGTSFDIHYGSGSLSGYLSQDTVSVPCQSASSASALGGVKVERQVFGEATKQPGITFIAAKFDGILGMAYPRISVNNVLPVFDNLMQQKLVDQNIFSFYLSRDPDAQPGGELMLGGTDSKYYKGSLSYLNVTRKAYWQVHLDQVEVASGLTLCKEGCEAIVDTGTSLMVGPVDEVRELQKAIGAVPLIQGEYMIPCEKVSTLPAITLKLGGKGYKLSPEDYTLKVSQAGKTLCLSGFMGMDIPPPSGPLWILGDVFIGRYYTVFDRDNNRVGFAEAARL

Molecule	% enhancement of the pigeon cytochrome C(81-104) peptide-specific response ([1]; Ii peptide 1 μM) [%]	% enhancement of the pigeon cytochrome C(81-104) peptide-specific response ([1]; Ii peptide 10 μM) [%]	% enhancement of the pigeon cytochrome C(81-104) peptide-specific response ([1]; Ii peptide 50 μM) [%]	% enhancement of the pigeon cytochrome C(81-104) peptide-specific response ([1]; Ii peptide 100 μM) [%]	lowest level of cathepsin D seen to cleave Ii [2] [U/ml]	antigen charging in vitro [3]	final proteolysis of Ii [3]	inhibition of cathepsin B [4]	inhibition of cathepsin D [5]
YRMKLPKPPKPVSKMR [Ii (78-92), YRMKLPKPPKPVSKMR]	40	101	187	170					
cathepsin D: aspartyl protease					0.1				
CC(=O)N[C@@H](CC(C)C)C(=O)N[C@@H](CC(C)C)C(=O)N[C@H](C=O)CCCNC(=N)N [leupeptin]						blocks antigen charging in vitro	limits the final proteolysis of Ii to p21 and p14 fragments	inhibited	not
ENLRHLKNTMETLDWKV [Ii (148-164), ENLRHLKNTMETLDWKV]	0	19	91	140					
